This is an account of results in ChEMBL document CHEMBL4602648, “The bioisosteric modification of pyrazinamide derivatives led to potent antitubercular agents: Synthesis via click approach and molecular docking of pyrazine-1,2,3-triazoles” (Bioorg Med Chem Lett, 2020).

In brackets after ≈: the same amount, converted by molar mass. Activity calls are given as the source filed them. The calls are words filed in the database; no cut-off is given here.

The subject of one series is Pseudomonas aeruginosa. As to the kind of experiment: Antibacterial activity against Pseudomonas aeruginosa by dilution assay. Type of series: functional.
In a further series the test system is Staphylococcus aureus. Nature of the series: Antibacterial activity against Staphylococcus aureus by dilution assay. Type of series: functional.
In series [1] the target is T1, Enoyl-[acyl-carrier-protein] reductase [NADH] (Mycobacterium tuberculosis) (UniProt P9WGR1).
T1 sequence (whole entry): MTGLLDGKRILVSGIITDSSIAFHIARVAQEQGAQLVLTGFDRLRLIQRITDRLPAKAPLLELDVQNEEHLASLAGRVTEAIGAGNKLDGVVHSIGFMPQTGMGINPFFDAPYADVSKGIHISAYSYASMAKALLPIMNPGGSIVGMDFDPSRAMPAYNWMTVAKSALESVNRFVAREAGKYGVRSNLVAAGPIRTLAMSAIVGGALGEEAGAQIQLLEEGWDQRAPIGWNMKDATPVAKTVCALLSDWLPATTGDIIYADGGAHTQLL
Nature of the series: Inhibition of Mycobacterium tuberculosis H37Rv ATCC 27294 InhA assessed as bacterial growth inhibition after 5 days by microplate alamar blue assay. (In general: Alamar Blue is a resazurin reagent that responds to reducing activity.)

In the next series the test system is Escherichia coli. Nature of the series: Antibacterial activity against Escherichia coli by dilution assay. Type of series: functional.
For another series, the system named is Vero. Nature of the series: Cytotoxicity against African green monkey Vero cells assessed as reduction in cell viability incubated for 48 hrs by MTT assay. Type of series: cell-based. Conditions: Chlorocebus sabaeus.
Series [2] can be described thus: Selectivity index, ratio of IC50 for cytotoxicity against African green monkey Vero cells to MIC for antitubercular activity against Mycobacterium tuberculosis H37Rv ATCC 27294. The settings on record: read-out: Selectivity Index. The class given is toxicity, cell-based.
Series [3] is described as follows: Cytotoxicity against African green monkey Vero cells assessed as growth inhibition at 62.5 ug/ml after 48 hrs by MTT assay relative to control. Type of series: cell-based. Conditions: chlorocebus sabaeus, read-out: GI. (In general: Formazan colour is commonly taken as a measure of viable cells.)

With `N#Cc1ccc(Cn2cc(CNC(=O)c3ccccc3)nn2)cc1`, the MIC against Pseudomonas aeruginosa was 25 µg/mL (≈ 78.8 µM); in the series on Staphylococcus aureus, 25 µg/mL (≈ 78.8 µM); in series [1] it was 39.4 µM (≈ 12.5 µg/mL); in the series with Escherichia coli, 25 µg/mL (≈ 78.8 µM).
As to `O=C(NCc1cn(Cc2ccc(F)cc2)nn1)c1ccccc1`, the MIC result with Pseudomonas aeruginosa and with Escherichia coli was “inactive” throughout. Moreover, the MIC is 50 µg/mL (≈ 161 µM) with Staphylococcus aureus and more than 100 µM in series [1].
As for `Fc1ccc(Cn2cc(CSc3nnc(-c4cnccn4)o3)nn2)cc1`, the MIC in the series with Pseudomonas aeruginosa was 50 µg/mL (≈ 135 µM); against Staphylococcus aureus, 25 µg/mL (≈ 67.7 µM); in series [1], 33.8 µM (≈ 12.5 µg/mL); with Escherichia coli, 25 µg/mL (≈ 67.7 µM).
With `O=C(OCc1cn(Cc2ccc(C(F)(F)F)cc2)nn1)c1cccnc1`, the MIC came to 50 µg/mL (≈ 138 µM) in the series on Pseudomonas aeruginosa, 25 µg/mL (≈ 69 µM) in the series on Staphylococcus aureus, 34.5 µM (≈ 12.5 µg/mL) in series [1] and 25 µg/mL (≈ 69 µM) against Escherichia coli.
Take `O=C(OCc1cn(Cc2ccc([N+](=O)[O-])cc2)nn1)c1cccnc1`: the MIC against Pseudomonas aeruginosa amounted to 25 µg/mL (≈ 73.7 µM); in the series with Staphylococcus aureus, 25 µg/mL (≈ 73.7 µM); in series [1] it was 36.8 µM (≈ 12.5 µg/mL); against Escherichia coli, 25 µg/mL (≈ 73.7 µM).
In the case of `NC(=O)c1cnccn1`, the MIC in series [1] was 25.3 µM (≈ 3.12 µg/mL).
Regarding `O=C(NCc1cn(Cc2ccc(C(F)(F)F)cc2)nn1)c1cnccn1`, the IC50 in the series on Vero was determined as 342 µg/mL (≈ 944 µM). The MIC in the series on Pseudomonas aeruginosa amounted to 25 µg/mL (≈ 69 µM); in the series with Staphylococcus aureus it was 12.5 µg/mL (≈ 34.5 µM); in series [1] it was 4.31 µM (≈ 1.56 µg/mL); in the series on Escherichia coli, 12.5 µg/mL (≈ 34.5 µM). For the same compound, the selectivity ratio in series [2] was determined as 219. In addition, the inhibition at 48 h, 62.5 ug/ml in series [3] amounted to 8.4%.
With `O=C(OCc1cn(Cc2ccccc2F)nn1)c1cnccn1`, the MIC against Pseudomonas aeruginosa came out at 50 µg/mL (≈ 160 µM); against Staphylococcus aureus it was 25 µg/mL (≈ 79.8 µM); in series [1], 19.9 µM (≈ 6.23 µg/mL); against Escherichia coli, 25 µg/mL (≈ 79.8 µM).
As for `O=C(NCc1cn(Cc2ccc(F)cc2)nn1)c1cnccn1`, the IC50 with Vero amounted to 496 µg/mL (≈ 1590 µM). Moreover, the MIC in the series with Pseudomonas aeruginosa came out at 12.5 µg/mL (≈ 40 µM); in the series with Staphylococcus aureus, 6.25 µg/mL (≈ 20 µM); in series [1], 4.99 µM (≈ 1.56 µg/mL); with Escherichia coli it was 12.5 µg/mL (≈ 40 µM). In addition, the selectivity ratio in series [2] amounted to 318. Moreover, the inhibition at 48 h, 62.5 ug/ml in series [3] worked out at 5.9%.
As to `O=C(NCc1cn(Cc2ccc([N+](=O)[O-])cc2)nn1)c1cnccn1`, the IC50 with Vero is 403 µg/mL (≈ 1190 µM). The MIC with Pseudomonas aeruginosa was 6.25 µg/mL (≈ 18.4 µM); with Staphylococcus aureus, 3.12 µg/mL (≈ 9.19 µM); in series [1], 4.59 µM (≈ 1.56 µg/mL); against Escherichia coli, 6.25 µg/mL (≈ 18.4 µM). Further, the selectivity ratio in series [2] came to 258. In addition, the inhibition at 48 h, 62.5 ug/ml in series [3] is 20.5%.
Regarding `O=C(OCc1cn(Cc2ccc(C(F)(F)F)cc2)nn1)c1cnccn1`, the MIC turned out to be 25 µg/mL (≈ 68.8 µM) against Pseudomonas aeruginosa, 25 µg/mL (≈ 68.8 µM) against Staphylococcus aureus, 8.59 µM (≈ 3.12 µg/mL) in series [1] and 25 µg/mL (≈ 68.8 µM) with Escherichia coli.
For the compound `O=C(NCc1cn(Cc2ccc(F)cc2)nn1)c1cccnc1`, the MIC with Pseudomonas aeruginosa is 25 µg/mL (≈ 80.3 µM); against Staphylococcus aureus, 12.5 µg/mL (≈ 40.2 µM); in series [1], 80.3 µM (≈ 25 µg/mL); in the series with Escherichia coli, 12.5 µg/mL (≈ 40.2 µM).
In the case of `O=C(NCc1cn(Cc2ccccc2F)nn1)c1ccccc1`, the MIC was 50 µg/mL (≈ 161 µM) against Pseudomonas aeruginosa, 50 µg/mL (≈ 161 µM) in the series on Staphylococcus aureus and more than 100 µM in series [1]. For the same compound, the MIC entry in the series on Escherichia coli was “inactive”.
On to `Fc1ccccc1Cn1cc(CSc2nnc(-c3cccnc3)o2)nn1`, for which the MIC against Pseudomonas aeruginosa is 25 µg/mL (≈ 67.9 µM); in the series with Staphylococcus aureus it was 50 µg/mL (≈ 136 µM); in series [1] it was more than 100 µM; in the series with Escherichia coli it was 50 µg/mL (≈ 136 µM).
Consider `N#Cc1ccc(Cn2cc(COC(=O)c3ccccc3)nn2)cc1`, for which the MIC in the series with Pseudomonas aeruginosa is 50 µg/mL (≈ 157 µM); in the series with Staphylococcus aureus it was 25 µg/mL (≈ 78.5 µM); in series [1], 39.3 µM (≈ 12.5 µg/mL); against Escherichia coli, 25 µg/mL (≈ 78.5 µM).
With `N#Cc1ccc(Cn2cc(CSc3nnc(-c4cccnc4)o3)nn2)cc1`, the MIC in the series with Pseudomonas aeruginosa was determined as 50 µg/mL (≈ 133 µM); in the series with Staphylococcus aureus it was 50 µg/mL (≈ 133 µM); in series [1] it was 66.6 µM (≈ 25 µg/mL); against Escherichia coli, 50 µg/mL (≈ 133 µM).
As to `N#Cc1ccc(Cn2cc(CNC(=O)c3cccnc3)nn2)cc1`, in the series on Vero, the IC50 worked out at 399 µg/mL (≈ 1250 µM). The MIC against Pseudomonas aeruginosa amounted to 6.25 µg/mL (≈ 19.6 µM); with Staphylococcus aureus, 6.25 µg/mL (≈ 19.6 µM); in series [1], 4.9 µM (≈ 1.56 µg/mL); in the series with Escherichia coli, 6.25 µg/mL (≈ 19.6 µM). The selectivity ratio in series [2] was 256. In addition, the inhibition at 48 h, 62.5 ug/ml in series [3] turned out to be 17.7%.
Turning to `N#Cc1ccc(Cn2cc(CSc3nnc(-c4cnccn4)o3)nn2)cc1`, the MIC against Pseudomonas aeruginosa was found to be 50 µg/mL (≈ 133 µM); in the series with Staphylococcus aureus, 25 µg/mL (≈ 66.4 µM); in series [1], 16.6 µM (≈ 6.25 µg/mL); with Escherichia coli it was 50 µg/mL (≈ 133 µM).
In the case of `FC(F)(F)c1ccc(Cn2cc(CSc3nnc(-c4cccnc4)o3)nn2)cc1`, the MIC against Pseudomonas aeruginosa was 50 µg/mL (≈ 120 µM); against Staphylococcus aureus, 25 µg/mL (≈ 59.8 µM); in series [1] it was more than 100 µM; in the series with Escherichia coli it was 50 µg/mL (≈ 120 µM).
As to `O=C(NCc1cn(Cc2ccc([N+](=O)[O-])cc2)nn1)c1ccccc1`, the MIC against Pseudomonas aeruginosa is 50 µg/mL (≈ 148 µM); in the series on Staphylococcus aureus, 50 µg/mL (≈ 148 µM); in series [1], more than 100 µM; against Escherichia coli, 50 µg/mL (≈ 148 µM).
For the compound `O=C(NCc1cn(Cc2ccccc2F)nn1)c1cccnc1`, the MIC in the series with Pseudomonas aeruginosa amounted to 25 µg/mL (≈ 80.3 µM); in the series on Staphylococcus aureus, 6.25 µg/mL (≈ 20.1 µM); in series [1], 10 µM (≈ 3.12 µg/mL); against Escherichia coli, 25 µg/mL (≈ 80.3 µM).

The term IC50 denotes the midpoint of a concentration-inhibition curve.
